Patent US12723063B2, “GIPR-agonist compounds” (Eli Lilly and Company, priority 2019, dated 2026)
*1 amine or outer side, *2 acyl side, *3 side chain or, on linkers, in order; H or OH if unused. Where a SMILES comes first, the peptide text is derived from it. Side-chain parts run from the residue outwards. [ ]: non-standard residue; d: D form. The star is where a group is joined. C20 diacid = O=C(O)CCCCCCCCCCCCCCCCCCC(=O)*; αMePhe(2-F) = C[C@](N)(Cc1ccccc1F)C(=O)O; γGlu = O=C(O)[C@H](CCC(=O)[*:2])N[*:1]; 4Pal = N[C@@H](Cc1ccncc1)C(=O)O; αMeL = CC(C)C[C@](C)(N)C(=O)O; AEEA = NCCOCCOCC(=O)O; Aib = CC(C)(N)C(=O)O

Experiments:
Assay in all cases: cAMP functional assay (HTRF) in HEK293 cells in presence of 0.1% casein
Assay type in all cases: cell-based
[1] = target: T1, human glucose-dependent insulinotropic peptide receptor (GIPR) (Homo sapiens, UniProt P48546); settings: HEK293 cells expressing human GIPR, geometric mean, read-out: hGIPR cAMP Rel EC50 nM (SEM, n)
T1 construct: expressed in transfected cells; host or cells: HEK293
T1 sequence (P48546 22-466): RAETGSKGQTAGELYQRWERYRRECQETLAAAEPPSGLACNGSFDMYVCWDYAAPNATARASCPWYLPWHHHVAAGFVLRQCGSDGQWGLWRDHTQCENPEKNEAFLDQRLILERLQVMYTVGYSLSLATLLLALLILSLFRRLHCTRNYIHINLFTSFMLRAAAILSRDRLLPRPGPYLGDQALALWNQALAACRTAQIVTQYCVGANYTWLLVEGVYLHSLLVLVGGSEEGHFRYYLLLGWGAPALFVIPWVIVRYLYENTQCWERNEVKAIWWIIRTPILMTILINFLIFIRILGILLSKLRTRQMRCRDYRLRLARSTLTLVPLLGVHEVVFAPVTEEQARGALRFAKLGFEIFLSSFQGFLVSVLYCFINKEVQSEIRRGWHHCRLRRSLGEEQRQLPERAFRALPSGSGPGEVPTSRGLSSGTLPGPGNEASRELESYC

[2] = target: T2, human glucagon receptor (GcgR) (Homo sapiens, UniProt P47871); settings: HEK293 cells expressing human GcgR, geometric mean, read-out: hGcgR cAMP Rel EC50 nM (SEM, n)
T2 construct: expressed in transfected cells; host or cells: HEK293
T2 sequence (P47871 26-477): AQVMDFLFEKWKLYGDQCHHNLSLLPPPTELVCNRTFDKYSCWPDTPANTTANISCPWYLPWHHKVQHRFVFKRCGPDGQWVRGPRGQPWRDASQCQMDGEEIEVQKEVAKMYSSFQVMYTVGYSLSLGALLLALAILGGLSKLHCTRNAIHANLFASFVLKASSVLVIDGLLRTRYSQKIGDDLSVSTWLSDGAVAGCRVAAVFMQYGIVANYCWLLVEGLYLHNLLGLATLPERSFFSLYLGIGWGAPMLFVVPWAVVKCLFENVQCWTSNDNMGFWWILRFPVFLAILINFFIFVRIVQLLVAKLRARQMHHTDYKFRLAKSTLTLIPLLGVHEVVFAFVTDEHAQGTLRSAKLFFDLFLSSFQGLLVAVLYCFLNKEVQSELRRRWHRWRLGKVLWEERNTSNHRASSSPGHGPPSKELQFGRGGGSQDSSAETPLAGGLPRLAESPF

[3] = target: T3, human GLP-1 receptor (GLP-1R) (Homo sapiens, UniProt P43220); settings: HEK293 cells expressing human GLP-1R, geometric mean, read-out: hGLP1R cAMP Rel EC50 nM (SEM, n)
T3 construct: expressed in transfected cells; host or cells: HEK293
T3 sequence (P43220 24-463): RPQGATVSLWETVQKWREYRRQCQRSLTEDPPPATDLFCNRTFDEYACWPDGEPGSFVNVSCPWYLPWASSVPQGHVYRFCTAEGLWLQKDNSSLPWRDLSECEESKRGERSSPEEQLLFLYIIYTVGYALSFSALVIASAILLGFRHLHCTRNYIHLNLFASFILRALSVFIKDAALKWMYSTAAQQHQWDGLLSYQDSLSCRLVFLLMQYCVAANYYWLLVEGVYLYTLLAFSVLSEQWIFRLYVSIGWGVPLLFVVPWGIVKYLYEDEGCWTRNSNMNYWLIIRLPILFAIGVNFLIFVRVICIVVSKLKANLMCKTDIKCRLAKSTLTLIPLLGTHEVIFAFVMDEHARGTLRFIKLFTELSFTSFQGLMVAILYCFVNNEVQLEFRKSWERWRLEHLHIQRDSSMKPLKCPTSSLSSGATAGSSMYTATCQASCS

Structure (SMILES)	EC50 [1]	EC50 [2]	EC50 [3]
CC[C@H](C)[C@H](NC(=O)[C@H](Cc1ccccc1)NC(=O)[C@@H](NC(=O)CNC(=O)[C@H](CCC(=O)O)NC(=O)C(C)(C)NC(=O)[C@@H](N)Cc1ccc(O)cc1)[C@@H](C)O)C(=O)N[C@@H](CO)C(=O)N[C@@H](CC(=O)O)C(=O)N[C@@H](Cc1ccc(O)cc1)C(=O)N[C@@H](CO)C(=O)N[C@H](C(=O)N[C@@](C)(CC(C)C)C(=O)N[C@@H](CC(C)C)C(=O)N[C@@H](CC(=O)O)C(=O)N[C@@H](CCCCN)C(=O)N[C@@H](CCCCNC(=O)COCCOCCNC(=O)COCCOCCNC(=O)CC[C@H](NC(=O)CCCCCCCCCCCCCCCCCCC(=O)O)C(=O)O)C(=O)N[C@@H](Cc1c[nH]cn1)C(=O)N[C@@H](CCC(N)=O)C(=O)NC(C)(C)C(=O)N[C@@H](CCC(=O)O)C(=O)N[C@@H](Cc1ccccc1)C(=O)N[C@H](C(=O)N[C@@H](CCC(=O)O)C(=O)N[C@@H](Cc1ccncc1)C(=O)N[C@@H](CC(C)C)C(=O)N[C@@H](CC(C)C)C(=O)N[C@@H](C)C(=O)N[C@@H](CCC(N)=O)C(=O)NCC(=O)N1CCC[C@H]1C(=O)N[C@@H](CO)C(=O)N[C@@H](CO)C(=O)NCC(=O)N[C@@H](C)C(=O)N1CCC[C@H]1C(=O)N1CCC[C@H]1C(=O)N1CCC[C@H]1C(=O)N[C@@H](CO)C(N)=O)C(C)C)[C@@H](C)CC [Example 57] (H-Y[Aib]EGTFISDYSI[αMeL]LDKK([AEEA-AEEA-γGlu-C20 diacid])HQ[Aib]EFVE[4Pal]LLAQGPSSGAPPPS-NH2)	0.0177 nM	886 nM	> 5000 nM
CC[C@H](C)[C@H](NC(=O)[C@H](Cc1ccccc1)NC(=O)[C@@H](NC(=O)CNC(=O)[C@H](CCC(=O)O)NC(=O)C(C)(C)NC(=O)[C@@H](N)Cc1ccc(O)cc1)[C@@H](C)O)C(=O)N[C@@H](CO)C(=O)N[C@@H](CC(=O)O)C(=O)N[C@@H](Cc1ccc(O)cc1)C(=O)N[C@@H](CO)C(=O)N[C@H](C(=O)N[C@@](C)(CC(C)C)C(=O)N[C@@H](CC(C)C)C(=O)N[C@@H](CC(=O)O)C(=O)N[C@@H](CCCCN)C(=O)N[C@@H](CCCCNC(=O)COCCOCCNC(=O)COCCOCCNC(=O)CC[C@H](NC(=O)CCCCCCCCCCCCCCCCCCC(=O)O)C(=O)O)C(=O)N[C@@H](Cc1c[nH]cn1)C(=O)N[C@@H](CCC(N)=O)C(=O)NC(C)(C)C(=O)N[C@@H](CC(=O)O)C(=O)N[C@@H](Cc1ccccc1)C(=O)N[C@H](C(=O)N[C@@H](CCC(=O)O)C(=O)N[C@@H](Cc1ccc(O)cc1)C(=O)N[C@@H](CC(C)C)C(=O)N[C@@H](CC(C)C)C(=O)N[C@@H](C)C(=O)NCC(=O)NCC(=O)N1CCC[C@H]1C(=O)N[C@@H](CO)C(=O)N[C@@H](CO)C(=O)NCC(=O)N[C@@H](C)C(=O)N1CCC[C@H]1C(=O)N1CCC[C@H]1C(=O)N1CCC[C@H]1C(=O)N[C@@H](CO)C(N)=O)C(C)C)[C@@H](C)CC [Example 53] (H-Y[Aib]EGTFISDYSI[αMeL]LDKK([AEEA-AEEA-γGlu-C20 diacid])HQ[Aib]DFVEYLLAGGPSSGAPPPS-NH2)	0.0194 nM	344 nM	> 5000 nM
CC[C@H](C)[C@H](NC(=O)[C@H](CO)NC(=O)[C@H](Cc1ccc(O)cc1)NC(=O)[C@H](CC(=O)O)NC(=O)[C@H](CO)NC(=O)[C@@H](NC(=O)[C@](C)(Cc1ccccc1F)NC(=O)[C@@H](NC(=O)CNC(=O)[C@H](CCC(=O)O)NC(=O)C(C)(C)NC(=O)[C@@H](N)Cc1ccc(O)cc1)[C@@H](C)O)[C@@H](C)CC)C(=O)N[C@@H](C)C(=O)N[C@@H](CC(C)C)C(=O)N[C@@H](CC(=O)O)C(=O)N[C@@H](CCCCN)C(=O)N[C@@H](CCCCNC(=O)COCCOCCNC(=O)COCCOCCNC(=O)CC[C@H](NC(=O)CCCCCCCCCCCCCCCCCCC(=O)O)C(=O)O)C(=O)N[C@@H](Cc1c[nH]cn1)C(=O)N[C@@H](CCC(N)=O)C(=O)NC(C)(C)C(=O)N[C@@H](CCC(=O)O)C(=O)N[C@@H](Cc1ccccc1)C(=O)N[C@H](C(=O)N[C@@H](CC(N)=O)C(=O)N[C@@H](Cc1ccc(O)cc1)C(=O)N[C@@H](CC(C)C)C(=O)N[C@@H](CC(C)C)C(=O)N[C@@H](C)C(=O)N[C@H](C(=O)NCC(=O)N1CCC[C@H]1C(=O)N[C@@H](CO)C(=O)N[C@@H](CO)C(=O)NCC(=O)N[C@@H](C)C(=O)N1CCC[C@H]1C(=O)N1CCC[C@H]1C(=O)N1CCC[C@H]1C(=O)N[C@@H](CO)C(N)=O)[C@@H](C)O)C(C)C [Example 34] (H-Y[Aib]EGT[αMePhe(2-F)]ISDYSIALDKK([AEEA-AEEA-γGlu-C20 diacid])HQ[Aib]EFVNYLLATGPSSGAPPPS-NH2)	0.0177 nM	913 nM	462 nM
CC[C@H](C)[C@H](NC(=O)[C@H](CO)NC(=O)[C@H](Cc1ccc(O)cc1)NC(=O)[C@H](CC(=O)O)NC(=O)[C@H](CO)NC(=O)[C@@H](NC(=O)[C@](C)(CC(C)C)NC(=O)[C@@H](NC(=O)CNC(=O)[C@H](CCC(=O)O)NC(=O)C(C)(C)NC(=O)[C@@H](N)Cc1ccc(O)cc1)[C@@H](C)O)[C@@H](C)CC)C(=O)N[C@@H](C)C(=O)N[C@@H](CC(C)C)C(=O)N[C@@H](CC(=O)O)C(=O)N[C@@H](CCCCN)C(=O)N[C@@H](CCCCNC(=O)COCCOCCNC(=O)COCCOCCNC(=O)CC[C@H](NC(=O)CCCCCCCCCCCCCCCCCCC(=O)O)C(=O)O)C(=O)N[C@@H](Cc1c[nH]cn1)C(=O)N[C@@H](CCC(N)=O)C(=O)NC(C)(C)C(=O)N[C@@H](CCC(=O)O)C(=O)N[C@@H](Cc1ccccc1)C(=O)N[C@H](C(=O)N[C@@H](CC(N)=O)C(=O)N[C@@H](Cc1ccc(O)cc1)C(=O)N[C@@H](CC(C)C)C(=O)N[C@@H](CC(C)C)C(=O)N[C@@H](C)C(=O)N[C@H](C(=O)NCC(=O)N1CCC[C@H]1C(=O)N[C@@H](CO)C(=O)N[C@@H](CO)C(=O)NCC(=O)N[C@@H](C)C(=O)N1CCC[C@H]1C(=O)N1CCC[C@H]1C(=O)N1CCC[C@H]1C(=O)N[C@@H](CO)C(N)=O)[C@@H](C)O)C(C)C [Example 35] (H-Y[Aib]EGT[αMeL]ISDYSIALDKK([AEEA-AEEA-γGlu-C20 diacid])HQ[Aib]EFVNYLLATGPSSGAPPPS-NH2)	0.0125 nM	> 5000 nM	> 5000 nM
CC[C@H](C)[C@H](NC(=O)[C@H](Cc1ccccc1)NC(=O)[C@@H](NC(=O)CNC(=O)[C@H](CCC(=O)O)NC(=O)C(C)(C)NC(=O)[C@@H](N)Cc1ccc(O)cc1)[C@@H](C)O)C(=O)N[C@@H](CO)C(=O)N[C@@H](CC(=O)O)C(=O)N[C@@H](Cc1ccc(O)cc1)C(=O)N[C@@H](CO)C(=O)N[C@H](C(=O)N[C@@](C)(CC(C)C)C(=O)N[C@@H](CC(C)C)C(=O)N[C@@H](CC(=O)O)C(=O)N[C@@H](CCCCN)C(=O)N[C@@H](CCCCNC(=O)COCCOCCNC(=O)COCCOCCNC(=O)CC[C@H](NC(=O)CCCCCCCCCCCCCCCCCCC(=O)O)C(=O)O)C(=O)N[C@@H](Cc1c[nH]cn1)C(=O)N[C@@H](CCC(N)=O)C(=O)NC(C)(C)C(=O)N[C@@H](CCC(=O)O)C(=O)N[C@@H](Cc1ccccc1)C(=O)N[C@H](C(=O)N[C@@H](CCC(=O)O)C(=O)N[C@@H](Cc1ccc(O)cc1)C(=O)N[C@@H](CC(C)C)C(=O)N[C@@H](CC(C)C)C(=O)N[C@@H](CCC(=O)O)C(=O)N[C@H](C(=O)NCC(=O)N1CCC[C@H]1C(=O)N[C@@H](CO)C(=O)N[C@@H](CO)C(=O)NCC(=O)N[C@@H](C)C(=O)N1CCC[C@H]1C(=O)N1CCC[C@H]1C(=O)N1CCC[C@H]1C(=O)N[C@@H](CO)C(N)=O)[C@@H](C)O)C(C)C)[C@@H](C)CC [Example 64] (H-Y[Aib]EGTFISDYSI[αMeL]LDKK([AEEA-AEEA-γGlu-C20 diacid])HQ[Aib]EFVEYLLETGPSSGAPPPS-NH2)	0.0448 nM	3070 nM	> 5000 nM
CC[C@H](C)[C@H](NC(=O)[C@H](Cc1ccccc1)NC(=O)[C@@H](NC(=O)CNC(=O)[C@H](CCC(=O)O)NC(=O)C(C)(C)NC(=O)[C@@H](N)Cc1ccc(O)cc1)[C@@H](C)O)C(=O)N[C@@H](CO)C(=O)N[C@@H](CC(=O)O)C(=O)N[C@@H](Cc1ccc(O)cc1)C(=O)N[C@@H](CO)C(=O)N[C@H](C(=O)N[C@@](C)(CC(C)C)C(=O)N[C@@H](CC(C)C)C(=O)N[C@@H](CC(=O)O)C(=O)N[C@@H](CCCCN)C(=O)N[C@@H](CCCCNC(=O)COCCOCCNC(=O)COCCOCCNC(=O)CC[C@H](NC(=O)CCCCCCCCCCCCCCCCCCC(=O)O)C(=O)O)C(=O)N[C@@H](Cc1c[nH]cn1)C(=O)N[C@@H](CCC(N)=O)C(=O)NC(C)(C)C(=O)N[C@@H](CC(=O)O)C(=O)N[C@@H](Cc1ccccc1)C(=O)N[C@H](C(=O)N[C@@H](CCC(=O)O)C(=O)N[C@@H](Cc1ccncc1)C(=O)N[C@@H](CC(C)C)C(=O)N[C@@H](CC(C)C)C(=O)N[C@@H](CCC(=O)O)C(=O)N[C@H](C(=O)NCC(=O)N1CCC[C@H]1C(=O)N[C@@H](CO)C(=O)N[C@@H](CO)C(=O)NCC(=O)N[C@@H](C)C(=O)N1CCC[C@H]1C(=O)N1CCC[C@H]1C(=O)N1CCC[C@H]1C(=O)N[C@@H](CO)C(N)=O)[C@@H](C)O)C(C)C)[C@@H](C)CC [Example 45] (H-Y[Aib]EGTFISDYSI[αMeL]LDKK([AEEA-AEEA-γGlu-C20 diacid])HQ[Aib]DFVE[4Pal]LLETGPSSGAPPPS-NH2)	0.049 nM	1690 nM	> 5000 nM
